Laboratory results: US20220265629A1, “TREATMENT OF SYSTOLIC DYSFUNCTION AND HEART FAILURE WITH REDUCED EJECTION FRACTION WITH THE COMPOUND (R)-4-(1-((3-(DIFLUOROMETHYL)-1-METHYL-1H-PYRAZOL-4-YL)SULFONYL)-1-FLUOROETHYL)-N-(ISOXAZOL-3-YL)PIPERIDINE-1-CARBOXAMIDE” (MyoKardia, Inc., priority 2019, published 2022)
Several values for one entry are separate records, joined by “and”; a condition that tells them apart may be missing. Equal values may be shown once. Read-outs that look alike come from different tables or passages of the source.

Assay: HFrEF study Part 2 (MAD Cohorts A-D): plasma pharmacokinetics
Assay type: in vivo, human
Settings: for Plasma concentration, Mean / Plasma concentration, Median: MAD cohorts; for AUC / Cmax / half-life: human, plasma, oral; for half-life: read-out: t1/2, λz (converted)
Text: This was a randomized, parallel-group, DB, placebo-controlled, adaptive design, sequential ascending (oral) multiple-close study in stable patients with heart failure. Four MAD Cohorts (A, B, C, D) were enrolled (FIG. 5B). An SRC reviewed results from each cohort and determined the close and confirmed initial sample size for the subsequent cohort. Additionally, the first 3 patients in each cohort had LVEF≥25%; the SRC reviewed preliminary safety data from these patients and decided whether to open cohort enrollment to patients with LVEF<25%.
After Screening and qualification, patients were confined to a clinical testing facility from Day 1 (Check-in) to Day 11. Each patient initially received placebo BID for 2 days (Days 1 and 2) in single-blinded manner (“run-in” during acclimatization to confinement in the Clinical Testing Unit) prior to receiving the randomized DB study drug treatment on Day 3. All patients then received either placebo or active Compound I for 7 days (Days 3 through 9), with a follow-up period with patients discharged from the unit on Day 11. A final follow-up clinic visit was conducted on Day 16. More than one patient could be closed in a cohort at the same time or during the same week depending on administrative issues, i.e., capacity and scheduling.
Patients were closed twice daily (every 12 hours). Doses could occur±2 hours from scheduled dosing times as long as closes were separated by at least 10 hours and by no more than 14 hours. The exception to the twice daily dosing was on Day 9 (last dose of randomized DB study drug treatment). On Day 9, a single morning close was administered.
During the study, multiple evaluations were performed that included: serial TTE assessments (11-14 TTEs per patient on Days 1, 2, 3, 4, 7, 9, 10 and 11); PK sampling (PK sample collected concomitantly with every post-randomization echocardiogram); ECGs (on Days 2, 3, 4, 7, 9, 10, 11 and 16); troponin (collected concomitantly with every post-randomization ECG); and safety laboratory assessments. Confined patients underwent continuous telemetry. Holter monitoring was performed in all patients at baseline (Days 1-2) and at the end of double-blind treatment (Days 7-9). Vital signs were collected daily.
Study medication consisted of Compound I 5 mg tablets, 25 mg tablets, 100 mg tablets, or matching placebo tablets. In Part 1 (SAD), Compound I or placebo was administered after an overnight fast (at least 6 hours), while in Part 2 (MAD), Compound I was administered after a 2 hour fast (Cohort A) or with food (Cohorts B, C, and D). The close was ingested with a minimum of 240 mL of water, but more water was ingested as needed. The entire close was administered over a period of up to 15 minutes. The time of close used to determine future assessments was the time the last tablet was taken. In the cohorts for Part 2 (MAD), a BID regimen was used.
In Part 2 (MAD), Cohort A patients fasted for 2 hours before and 2 hours after dosing. For example, if morning dosing occurred at 8 AM, patients could have a snack at 6 AM and a full breakfast at 10 AM. If afternoon dosing occurred at 8 PM, patients could have dinner at 6 PM and a snack at 10 PM. […] Cohort B, C, and D patients ingested food with each close.

[1] = MAD Cohort C, 75 mg BID (with food), individual subjects
[2] = MAD Cohort D, 100 mg BID (with food), Mean
[3] = plasma concentration group 2000-<3500 ng/mL (n = 26)
[4] = plasma concentration group <2000 ng/mL (n = 30)
[5] = plasma concentration group ≥3500 ng/mL (n = 13)

## Cn1cc(S(=O)(=O)[C@@](C)(F)C2CCN(C(=O)Nc3ccon3)CC2)c(C(F)F)n1 [Compound I, (R)-4-(1-((3-(difluoromethyl)-1-methyl-1H-pyrazol-4-yl)sulfonyl)-1-fluoroethyl)-N-(isoxazol-3-yl)piperidine-1-carboxamide]
[1]
  Cmax, Day 1: 1020 ng/mL and 1190 ng/mL and 1030 ng/mL and 1150 ng/mL and 1650 ng/mL and 1360 ng/mL
  Cmax, SS: 3860 ng/mL and 1840 ng/mL and 3810 ng/mL and 4140 ng/mL and 4940 ng/mL and 3220 ng/mL and 3930 ng/mL and 4720 ng/mL and 5010 ng/mL
  Cmin, SS: 1740 ng/mL and 954 ng/mL and 2660 ng/mL and 3240 ng/mL and 3910 ng/mL and 2530 ng/mL and 2440 ng/mL and 3930 ng/mL and 3900 ng/mL
  t1/2, λz: 13.55 h and 15.34 h and 20.46 h and 23.11 h and 41.54 h and 15.67 h and 13.72 h and 30.37 h and 24.06 h
MAD Cohort C, 75 mg BID (with food), steady state, individual subjects
  AUC_TAU: 32340 ng·h/mL and 15700 ng·h/mL and 37520 ng·h/mL and 44850 ng·h/mL and 53180 ng·h/mL and 35560 ng·h/mL and 38470 ng·h/mL and 51200 ng·h/mL and 53690 ng·h/mL
[2]
  Accumulation Ratio AUC tau: 4.65
  Accumulation Ratio Cmax: 3.89
  Accumulation_Index: 3.30
  Cavg, ss: 5030 ng/mL
  Cmin, SS: 4333 ng/mL
[3]
  Plasma concentration, Mean: 2716 ng/mL
  Plasma concentration, Median: 2740 ng/mL
[4]
  Plasma concentration, Mean: 1169 ng/mL
  Plasma concentration, Median: 1220 ng/mL
[5]
  Plasma concentration, Mean: 4448 ng/mL
  Plasma concentration, Median: 4290 ng/mL
50 mg, MAD Cohort B, 50 mg BID (with food), Mean, read-out: AUCtau, Day 1
  AUC: 7300 ng·h/mL
50 mg, MAD Cohort B, 50 mg BID (with food), Mean, read-out: Cmax, Day 1
  Cmax: 806 ng/mL
50 mg, MAD Cohort B, 50 mg BID (with food), Mean, read-out: Cmax, SS
  Cmax: 2770 ng/mL
50 mg, MAD Cohort B, 50 mg BID (with food), Mean
  half-life: 25.1 h
50 mg, MAD Cohort B, 50 mg BID (with food), individual subjects, read-out: AUCtau, Day 1
  AUC: 7430 ng·h/mL
50 mg, MAD Cohort B, 50 mg BID (with food), individual subjects, read-out: Cmax, Day 1
  Cmax: 933 ng/mL
50 mg, MAD Cohort B, 50 mg BID (with food), individual subjects, read-out: Cmax, SS
  Cmax: 2950 ng/mL
50 mg, MAD Cohort B, 50 mg BID (with food), steady state, Mean, read-out: AUC_TAU
  AUC: 28900 ng·h/mL
50 mg, MAD Cohort B, 50 mg BID (with food), steady state, individual subjects, read-out: AUC_TAU
  AUC: 29700 ng·h/mL
75 mg, MAD Cohort A, 75 mg BID (4 h fasting), Mean, read-out: AUCtau, Day 1
  AUC: 10400 ng·h/mL
75 mg, MAD Cohort A, 75 mg BID (4 h fasting), Mean, read-out: Cmax, Day 1
  Cmax: 1120 ng/mL
75 mg, MAD Cohort A, 75 mg BID (4 h fasting), Mean, read-out: Cmax, SS
  Cmax: 4050 ng/mL
75 mg, MAD Cohort A, 75 mg BID (4 h fasting), Mean
  half-life: 21.4 h
75 mg, MAD Cohort A, 75 mg BID (4 h fasting), individual subjects, read-out: AUCtau, Day 1
  AUC: 10600 ng·h/mL
75 mg, MAD Cohort A, 75 mg BID (4 h fasting), individual subjects, read-out: Cmax, Day 1
  Cmax: 1060 ng/mL
75 mg, MAD Cohort A, 75 mg BID (4 h fasting), individual subjects, read-out: Cmax, SS
  Cmax: 4580 ng/mL
75 mg, MAD Cohort A, 75 mg BID (4 h fasting), steady state, Mean, read-out: AUC_TAU
  AUC: 41000 ng·h/mL
75 mg, MAD Cohort A, 75 mg BID (4 h fasting), steady state, individual subjects, read-out: AUC_TAU
  AUC: 46200 ng·h/mL
75 mg, MAD Cohort C, 75 mg BID (with food), Mean, read-out: AUCtau, Day 1
  AUC: 10600 ng·h/mL
75 mg, MAD Cohort C, 75 mg BID (with food), Mean, read-out: Cmax, Day 1
  Cmax: 1250 ng/mL
75 mg, MAD Cohort C, 75 mg BID (with food), Mean, read-out: Cmax, SS
  Cmax: 3940 ng/mL
75 mg, MAD Cohort C, 75 mg BID (with food), Mean
  half-life: 22 h
75 mg, MAD Cohort C, 75 mg BID (with food), individual subjects, read-out: Cmax, Day 1
  Cmax: 1780 ng/mL
75 mg, MAD Cohort C, 75 mg BID (with food), steady state, Mean, read-out: AUC_TAU
  AUC: 40300 ng·h/mL
100 mg, MAD Cohort D, 100 mg BID (with food), Mean, read-out: AUCtau, Day 1
  AUC: 12900 ng·h/mL
100 mg, MAD Cohort D, 100 mg BID (with food), Mean, read-out: Cmax, Day 1
  Cmax: 1480 ng/mL
100 mg, MAD Cohort D, 100 mg BID (with food), Mean, read-out: Cmax, SS
  Cmax: 5680 ng/mL
100 mg, MAD Cohort D, 100 mg BID (with food), Mean
  half-life: 23.1 h
100 mg, MAD Cohort D, 100 mg BID (with food), individual subjects, read-out: AUCtau, Day 1
  AUC: 11600 ng·h/mL
100 mg, MAD Cohort D, 100 mg BID (with food), individual subjects, read-out: Cmax, Day 1
  Cmax: 1560 ng/mL
100 mg, MAD Cohort D, 100 mg BID (with food), individual subjects, read-out: Cmax, SS
  Cmax: 5210 ng/mL
100 mg, MAD Cohort D, 100 mg BID (with food), individual subjects
  half-life: 24.3 h
100 mg, MAD Cohort D, 100 mg BID (with food), steady state, Mean, read-out: AUC_TAU
  AUC: 60400 ng·h/mL
